Results published in paper PMC4786259 (PLoS ONE, 2016).

Key:
5-HT2B = target: T1, 5-HT2B (Homo sapiens, UniProt P41595); assay: PDSP radioligand competition binding; conditions: radioligand [^3H]LSD; read-out: In Vitro Affinity
T1 construct: expressed in transfected cells

D5 = D5 (Homo sapiens, UniProt P21918); assay: PDSP receptor functional assay; type: cell-based
α2B = α2B (Homo sapiens, UniProt P18089); assay: PDSP radioligand competition binding; conditions: radioligand [^3H]Rauwolscine; read-out: In vitro Affinity
DOR = DOR (Homo sapiens, UniProt P41143); assay: PDSP radioligand competition binding; conditions: radioligand [^3H]DADLE; read-out: In vitro Affinity
α1A = α1A (Homo sapiens, UniProt P35348); assay: PDSP radioligand competition binding; conditions: radioligand [^3H]Prazosin; read-out: In vitro Affinity
male C57BL/6J mice = assay: PCP-induced hyperlocomotor activity (open field); type: in vivo
Description: Locomotor activity was assessed in AccuScan activity monitors (41X41X30 cm; AccuScan Instruments, Columbus, OH) with photocells spaced at 1.52 cm as described. In these monitors, the photocells create a grid of light beams, and breaks in the light beams (caused by the mouse) are recorded. The Accuscan software then calculates the total distance travelled (amongst other measurements) by analyzing the sequential order of beam breaks in the grid. Horizontal activity was measured as the total distance traveled in centimeters and was recorded in 5-minute bins. PCP-induced hyperlocomotor activity: mice (n = 16) previously acclimated to activity chambers were placed into the chambers for 15 minutes. […] Subsequently, mice were injected with 6.0 mg/kg PCP (i.p.) and returned to the chamber for 90 minutes. Induction of AMPH-induced hyperlocomotor activity followed an identical protocol except locomotor activity was recorded for a total of 75 minutes and 3 mg/kg AMPH was used (i.p.).

5-HT7 = target: T2, 5-HT7 (Homo sapiens, UniProt P34969); assay: PDSP receptor functional assay; type: cell-based
T2 construct: expressed in transfected cells

5-HT1D = 5-HT1D (Homo sapiens, UniProt P28221); assay: PDSP radioligand competition binding; conditions: radioligand [^3H]5-CT; read-out: In vitro Affinity
mice = assay: Prepulse inhibition, pharmacological model using amphetamine; type: in vivo; conditions: data not shown

D5, sequence (P21918 whole entry, looked up): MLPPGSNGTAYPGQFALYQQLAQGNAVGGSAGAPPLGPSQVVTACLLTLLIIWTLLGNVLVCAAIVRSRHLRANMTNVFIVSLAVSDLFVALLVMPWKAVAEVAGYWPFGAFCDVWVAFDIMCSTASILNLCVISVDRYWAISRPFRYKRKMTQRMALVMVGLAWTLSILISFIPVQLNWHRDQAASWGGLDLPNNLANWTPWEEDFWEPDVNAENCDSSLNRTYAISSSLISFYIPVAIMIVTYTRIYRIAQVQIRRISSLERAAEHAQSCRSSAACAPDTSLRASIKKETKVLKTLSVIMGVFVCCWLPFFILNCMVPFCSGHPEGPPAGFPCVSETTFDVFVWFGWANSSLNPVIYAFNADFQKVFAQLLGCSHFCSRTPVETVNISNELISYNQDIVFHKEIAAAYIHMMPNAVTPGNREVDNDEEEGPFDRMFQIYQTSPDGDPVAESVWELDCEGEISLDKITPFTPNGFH
T2 sequence (P34969 whole entry, species assumed): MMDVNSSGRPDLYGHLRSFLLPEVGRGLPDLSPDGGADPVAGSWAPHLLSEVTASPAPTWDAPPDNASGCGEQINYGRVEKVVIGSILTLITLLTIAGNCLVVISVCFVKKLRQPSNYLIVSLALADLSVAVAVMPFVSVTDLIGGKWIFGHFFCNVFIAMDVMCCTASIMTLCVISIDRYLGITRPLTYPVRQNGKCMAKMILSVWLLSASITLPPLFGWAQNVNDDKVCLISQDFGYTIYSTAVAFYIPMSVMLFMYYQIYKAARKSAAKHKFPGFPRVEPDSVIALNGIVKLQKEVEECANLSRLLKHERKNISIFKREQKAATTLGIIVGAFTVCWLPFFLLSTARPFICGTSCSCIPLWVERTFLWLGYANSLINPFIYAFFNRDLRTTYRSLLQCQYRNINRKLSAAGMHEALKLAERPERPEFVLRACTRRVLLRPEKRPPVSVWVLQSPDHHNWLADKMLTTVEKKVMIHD
DOR, sequence (P41143 whole entry): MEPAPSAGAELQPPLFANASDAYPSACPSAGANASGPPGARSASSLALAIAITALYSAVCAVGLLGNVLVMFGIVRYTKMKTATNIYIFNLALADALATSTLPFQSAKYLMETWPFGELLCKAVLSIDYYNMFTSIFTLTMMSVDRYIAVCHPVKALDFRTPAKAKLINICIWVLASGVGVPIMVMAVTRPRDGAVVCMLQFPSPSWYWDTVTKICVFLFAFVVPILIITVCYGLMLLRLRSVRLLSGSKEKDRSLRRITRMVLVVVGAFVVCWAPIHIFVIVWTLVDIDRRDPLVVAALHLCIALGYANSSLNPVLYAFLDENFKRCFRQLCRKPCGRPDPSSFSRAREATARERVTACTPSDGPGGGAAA
T1 sequence (P41595 whole entry, species assumed): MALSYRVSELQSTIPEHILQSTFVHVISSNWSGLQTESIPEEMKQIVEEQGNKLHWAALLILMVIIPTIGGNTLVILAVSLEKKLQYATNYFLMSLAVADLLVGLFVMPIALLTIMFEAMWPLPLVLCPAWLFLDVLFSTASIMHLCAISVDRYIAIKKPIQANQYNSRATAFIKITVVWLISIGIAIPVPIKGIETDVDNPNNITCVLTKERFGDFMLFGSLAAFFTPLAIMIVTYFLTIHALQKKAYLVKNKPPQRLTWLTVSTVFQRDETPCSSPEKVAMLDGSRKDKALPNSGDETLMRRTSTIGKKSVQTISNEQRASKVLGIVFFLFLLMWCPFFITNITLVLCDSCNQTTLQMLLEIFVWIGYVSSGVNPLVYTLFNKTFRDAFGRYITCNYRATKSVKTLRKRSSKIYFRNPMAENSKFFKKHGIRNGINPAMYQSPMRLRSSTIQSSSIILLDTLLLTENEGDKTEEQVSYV
α1A, sequence (P35348 whole entry): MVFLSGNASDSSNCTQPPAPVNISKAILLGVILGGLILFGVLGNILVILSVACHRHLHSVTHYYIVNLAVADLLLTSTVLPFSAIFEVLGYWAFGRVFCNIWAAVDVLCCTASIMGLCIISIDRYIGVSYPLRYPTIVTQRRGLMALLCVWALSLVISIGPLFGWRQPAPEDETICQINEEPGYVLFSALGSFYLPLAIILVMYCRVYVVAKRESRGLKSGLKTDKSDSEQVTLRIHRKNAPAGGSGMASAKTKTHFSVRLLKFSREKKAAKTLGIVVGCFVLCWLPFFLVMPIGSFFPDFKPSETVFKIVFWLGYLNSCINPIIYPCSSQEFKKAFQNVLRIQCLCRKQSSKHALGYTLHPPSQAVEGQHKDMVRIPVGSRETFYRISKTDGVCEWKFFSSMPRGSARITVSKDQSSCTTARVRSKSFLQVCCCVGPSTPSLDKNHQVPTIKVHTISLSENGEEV
α2B, sequence (P18089 whole entry): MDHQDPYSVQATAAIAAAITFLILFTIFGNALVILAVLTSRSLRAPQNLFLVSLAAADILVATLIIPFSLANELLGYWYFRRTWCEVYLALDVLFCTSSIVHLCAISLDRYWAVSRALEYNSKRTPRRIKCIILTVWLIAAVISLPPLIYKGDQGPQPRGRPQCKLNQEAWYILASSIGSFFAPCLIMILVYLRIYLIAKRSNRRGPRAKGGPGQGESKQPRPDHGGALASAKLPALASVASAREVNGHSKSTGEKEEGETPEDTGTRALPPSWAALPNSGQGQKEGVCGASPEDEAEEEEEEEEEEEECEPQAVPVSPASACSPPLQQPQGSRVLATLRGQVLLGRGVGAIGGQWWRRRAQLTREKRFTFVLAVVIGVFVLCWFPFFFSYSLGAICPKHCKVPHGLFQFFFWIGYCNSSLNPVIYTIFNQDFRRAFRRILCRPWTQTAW
5-HT1D, sequence (P28221 whole entry, species assumed): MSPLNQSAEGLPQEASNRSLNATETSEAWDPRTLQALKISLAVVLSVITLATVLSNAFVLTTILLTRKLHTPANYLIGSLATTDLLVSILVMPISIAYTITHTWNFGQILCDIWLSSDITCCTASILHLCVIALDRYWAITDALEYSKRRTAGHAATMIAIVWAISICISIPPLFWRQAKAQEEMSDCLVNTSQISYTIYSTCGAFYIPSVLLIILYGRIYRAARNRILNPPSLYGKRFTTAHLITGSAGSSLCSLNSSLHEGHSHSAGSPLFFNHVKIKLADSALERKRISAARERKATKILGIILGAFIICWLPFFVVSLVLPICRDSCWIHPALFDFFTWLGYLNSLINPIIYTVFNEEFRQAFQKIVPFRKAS

COc1cc2c3c(c1OC)-c1ccccc1C[C@H]3N(C)CC2 [nuciferine]
Ki (5-HT2B): 41 nM | EC50 (D5): 2600 nM | Function Type (D5): Partial agonist | Emax (D5; partial agonist efficacy, read-out: maximal response): 50% | Ki (α2B): 687 nM | Ki (DOR): 10000 nM | Ki (α1A): 1390 nM | PCP-stimulated locomotor activity (male C57BL/6J mice; 3 mg/kg i.p. before 6.0 mg/kg PCP): failed to significantly alter the PCP-induced hyperlocomotion | PCP-stimulated locomotor activity (male C57BL/6J mice; 10.0 mg/kg i.p. before 6.0 mg/kg PCP): significantly blocked | EC50 (5-HT7): 150 nM | Function Type (5-HT7): Inverse agonist | IC50 (5-HT7): 150 nM | Ki (5-HT1D): 518 nM | PPI in the pharmacological model using amphetamine (mice): failed to normalize PPI
